What is called pIC50 is −log10 of the IC50, conventionally taken in molar units.

The subject of one test is GM1 production. Nature of the test: cells. In kind it is cell-based.
The target of test [1] is glucosylceramide synthase (GCS) (Homo sapiens (Human), UniProt Q16739). The experiment in a line: Evaluation of inhibitory activities against GCS (enzyme reaction with A549 cell lysate, NBD C6-ceramide, HPLC fluorescence). The settings on record: GCS activity in A549 cell lysate, 37° C. for 90 minutes. In kind it is biochemical. As to the method: Ibiglustat, known as a GCS inhibitor, was used as a control.
After the cells attached to the culture dish were washed with phosphate buffered saline (PBS), the cells were scraped off with a cell scraper and then centrifuged (4000 rpm, 3 min, 4° C.) to collect the cells in a 50 ml tube. The cell pellets were suspended in a lysis buffer (50 mM HEPES, pH 7.3, containing 1× the protease/phosphatase inhibitor cocktail), lysed by sonication, and then the lysate was centrifuged (13000 rpm, 10 min, 4° C.). The obtained supernatant was used for the quantitative analysis of proteins. The amount of proteins was measured using the BCA protein assay kit, using bovine serum albumin as a standard.
Enzymatic reactions were initiated by sequentially adding the following reaction materials to a 96 deep-well plate. Thereafter, the enzymatic reactions were performed at 37° C. for 90 minutes.
The enzymatic reactions were stopped by adding 100 μl of chloroform/methanol (2:1, v/v). After vortexing for 15 seconds, each mixture was centrifuged (4000 rpm, 10 min, 18° C.). The lower layer (50 μl) was transferred to a new 96 deep-well plate and dried with a reduced concentrator.
Data analysis was performed by the following equations. % Area (Sample)=Area (GlcCer)/[Area (Cer)+Area (GlcCer)]×100 % GCS activity=[Area(Sample)−Area(ibiglustat)]/[Area(DMSO)−Area(ibiglustat)]×100

pIC50: −log10 of the molar value. Like-named read-outs stand apart in the source and are kept apart here.

Chain of glucosylceramide synthase (GCS) (Q16739 whole entry, looked up): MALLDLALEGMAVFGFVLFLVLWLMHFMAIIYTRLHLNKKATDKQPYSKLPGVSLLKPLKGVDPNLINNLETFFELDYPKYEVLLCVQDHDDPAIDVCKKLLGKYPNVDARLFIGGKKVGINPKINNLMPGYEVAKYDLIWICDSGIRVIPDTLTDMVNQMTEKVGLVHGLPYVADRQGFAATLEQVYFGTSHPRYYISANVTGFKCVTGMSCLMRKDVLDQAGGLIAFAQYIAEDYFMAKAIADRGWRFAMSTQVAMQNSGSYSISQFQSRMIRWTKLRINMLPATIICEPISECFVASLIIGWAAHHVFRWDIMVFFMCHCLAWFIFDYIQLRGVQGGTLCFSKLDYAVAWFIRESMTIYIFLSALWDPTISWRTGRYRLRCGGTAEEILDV

For the molecule `O=C(NC1CCCc2ccc(-c3cccc(F)c3)cc21)O[C@@H]1CN2CCC1CC2` (stereo partly drawn) [Example 58], the negative-log IC50 (pIC50) in the test on GM1 production (read-out: IC50) was 7.13; in test [1] it was 7.96.
As for `O=C(NC1CCCc2ccc(-c3ccccc3F)cc21)O[C@@H]1CN2CCC1CC2` (stereo partly drawn) [Example 61], the pIC50 with GM1 production (read-out: IC50) was 7.21; in test [1] it was 8.07.
With `O=C(NC1CCCc2ccc(-c3ccccc3Cl)cc21)O[C@@H]1CN2CCC1CC2` (stereo partly drawn) [Example 62, (S)-quinuclidin-3-yl (7-(2-chlorophenyl)-1,2,3,4-tetrahydronaphthalen-1-yl)carbamate], the pIC50 is 7.31 with GM1 production (Homo sapiens, Jurkat, 72 h) and 8.13 in test [1].
The corresponding values for `O=C(NC1CCCc2ccc(-c3ccccc3C(F)(F)F)cc21)O[C@@H]1CN2CCC1CC2` (stereo partly drawn) [Example 63, (S)-quinuclidin-3-yl (7-(2-(trifluoromethyl)phenyl)-1,2,3,4-tetrahydronaphthalen-1-yl)carbamate] are 7.38 and 8.17.
For `O=C(NC1CCCc2ccc(-c3ccc(F)c(F)c3)cc21)O[C@@H]1CN2CCC1CC2` (stereo partly drawn) [Example 64, (S)-quinuclidin-3-yl (7-(3,4-difluorophenyl)-1,2,3,4-tetrahydronaphthalen-1-yl)carbamate] the same measures were 6.88 and 7.89.
The corresponding values for `O=C(NC1CCCc2ccc(-c3ccc(F)cc3F)cc21)O[C@@H]1CN2CCC1CC2` (stereo partly drawn) [Example 65, (S)-quinuclidin-3-yl (7-(2,4-difluorophenyl)-1,2,3,4-tetrahydronaphthalen-1-yl)carbamate] are 7.02 and 7.85.
For `O=C(NC1CCCc2ccc(-c3cc(F)c(F)cc3F)cc21)O[C@@H]1CN2CCC1CC2` (stereo partly drawn) [Example 66, (S)-quinuclidin-3-yl (7-(2,4,5-trifluorophenyl)-1,2,3,4-tetrahydronaphthalen-1-yl)carbamate], the pIC50 is 6.99 in the test with GM1 production (Homo sapiens, Jurkat, 72 h) and 7.33 in test [1].
The corresponding values for `O=C(NC1CCCc2ccc(-c3cc(F)ccc3F)cc21)O[C@@H]1CN2CCC1CC2` (stereo partly drawn) [Example 67, (S)-quinuclidin-3-yl (7-(2,5-difluorophenyl)-1,2,3,4-tetrahydronaphthalen-1-yl)carbamate] are 7.42 and 8.14.
The corresponding values for `O=C(NC1CCCc2ccc(-c3cc(F)cc(F)c3)cc21)O[C@@H]1CN2CCC1CC2` (stereo partly drawn) [Example 68, (S)-quinuclidin-3-yl (7-(3,5-difluorophenyl)-1,2,3,4-tetrahydronaphthalen-1-yl)carbamate] are 6.56 and 7.20.
For `O=C(NC1CCCc2ccc(-c3ccc(F)c(F)c3F)cc21)O[C@@H]1CN2CCC1CC2` (stereo partly drawn) [Example 69, (S)-quinuclidin-3-yl (7-(2,3,4-trifluorophenyl)-1,2,3,4-tetrahydronaphthalen-1-yl)carbamate] the same measures were 6.66 and 7.39.
Take `O=C(NC1CCCc2ccc(-c3ccc(Cl)c(Cl)c3)cc21)O[C@@H]1CN2CCC1CC2` (stereo partly drawn) [Example 70, (S)-quinuclidin-3-yl (7-(3,4-dichlorophenyl)-1,2,3,4-tetrahydronaphthalen-1-yl)carbamate]: the negative-log IC50 (pIC50) with GM1 production (Homo sapiens, Jurkat, 72 h) was 6.88; in test [1], 7.08.
For `O=C(NC1CCCc2ccc(-c3cc(Cl)ccc3Cl)cc21)O[C@@H]1CN2CCC1CC2` (stereo partly drawn) [Example 71, (S)-quinuclidin-3-yl (7-(2,5-dichlorophenyl)-1,2,3,4-tetrahydronaphthalen-1-yl)carbamate] the same measures were 7.02 and 7.64.
The corresponding values for `O=C(NC1CCCc2ccc(-c3ccncc3)cc21)O[C@@H]1CN2CCC1CC2` (stereo partly drawn) [Example 72, (S)-quinuclidin-3-yl (7-(pyridin-4-yl)-1,2,3,4-tetrahydronaphthalen-1-yl)carbamate] are 6.94 and 7.18.
For `O=C(NC1CCCc2ccc(-c3cccnc3)cc21)O[C@@H]1CN2CCC1CC2` (stereo partly drawn) [Example 73, (S)-quinuclidin-3-yl (7-(pyridin-3-yl)-1,2,3,4-tetrahydronaphthalen-1-yl)carbamate] the same measures were 6.23 and 6.44.
As to `Cc1ccccc1-c1ccc2c(c1)C(NC(=O)O[C@@H]1CN3CCC1CC3)CCC2` (stereo partly drawn) [Example 74, (S)-quinuclidin-3-yl (7-(o-tolyl)-1,2,3,4-tetrahydronaphthalen-1-yl)carbamate], the pIC50 in the test with GM1 production (Homo sapiens, Jurkat, 72 h) was 7.26; in test [1], 7.84.
For `COc1ccccc1-c1ccc2c(c1)C(NC(=O)O[C@@H]1CN3CCC1CC3)CCC2` (stereo partly drawn) [Example 75, (S)-quinuclidin-3-yl (7-(2-methoxyphenyl)-1,2,3,4-tetrahydronaphthalen-1-yl)carbamate] the same measures were 6.86 and 7.64.
For `CCOc1ccccc1-c1ccc2c(c1)C(NC(=O)O[C@@H]1CN3CCC1CC3)CCC2` (stereo partly drawn) [Example 76, (S)-quinuclidin-3-yl (7-(2-ethoxyphenyl)-1,2,3,4-tetrahydronaphthalen-1-yl)carbamate] the same measures were 6.81 and 7.73.
The corresponding values for `COc1cccc(-c2ccc3c(c2)C(NC(=O)O[C@@H]2CN4CCC2CC4)CCC3)c1` (stereo partly drawn) [Example 77, (S)-quinuclidin-3-yl (7-(3-methoxyphenyl)-1,2,3,4-tetrahydronaphthalen-1-yl)carbamate] are 6.71 and 7.13.
In the case of `CC(C)Oc1ccccc1-c1ccc2c(c1)C(NC(=O)O[C@@H]1CN3CCC1CC3)CCC2` (stereo partly drawn) [Example 78, (S)-quinuclidin-3-yl (7-(2-isopropoxyphenyl)-1,2,3,4-tetrahydronaphthalen-1-yl)carbamate], the pIC50 was 6.64 in the test on GM1 production (Homo sapiens, Jurkat, 72 h) and 7.52 in test [1].
For `COCCOc1ccc(-c2ccc3c(c2)C(NC(=O)O[C@@H]2CN4CCC2CC4)CCC3)cc1` (stereo partly drawn) [Example 79, (S)-quinuclidin-3-yl (7-(4-(2-methoxyethoxy)phenyl)-1,2,3,4-tetrahydronaphthalen-1-yl)carbamate] the same measures were 7.18 and 7.89.
The corresponding values for `COc1ccc(-c2ccc3c(c2)C(NC(=O)O[C@@H]2CN4CCC2CC4)CCC3)cc1` (stereo partly drawn) [Example 80, (S)-quinuclidin-3-yl (7-(4-methoxyphenyl)-1,2,3,4-tetrahydronaphthalen-1-yl)carbamate] are 6.65 and 7.81.
The corresponding values for `CCOc1ccc(-c2ccc3c(c2)C(NC(=O)O[C@@H]2CN4CCC2CC4)CCC3)cc1` (stereo partly drawn) [Example 81, (S)-quinuclidin-3-yl (7-(4-ethoxyphenyl)-1,2,3,4-tetrahydronaphthalen-1-yl)carbamate] are 6.39 and 7.20.
Take `CCCOc1ccc(-c2ccc3c(c2)C(NC(=O)O[C@@H]2CN4CCC2CC4)CCC3)cc1` (stereo partly drawn) [Example 82, (S)-quinuclidin-3-yl (7-(4-propoxyphenyl)-1,2,3,4-tetrahydronaphthalen-1-yl)carbamate]: the pIC50 is 7.84 with GM1 production (Homo sapiens, Jurkat, 72 h) and 7.52 in test [1].
For `CC(C)Oc1ccc(-c2ccc3c(c2)C(NC(=O)O[C@@H]2CN4CCC2CC4)CCC3)cc1` (stereo partly drawn) [Example 83, (S)-quinuclidin-3-yl (7-(4-isopropoxyphenyl)-1,2,3,4-tetrahydronaphthalen-1-yl)carbamate] the same measures were 6.41 and 7.41.
The corresponding values for `O=C(NC1CCCc2ccc(-c3ccc4c(c3)OCO4)cc21)O[C@@H]1CN2CCC1CC2` (stereo partly drawn) [Example 84, (S)-quinuclidin-3-yl (7-(benzo[d]dioxol-5-yl)-1,2,3,4-tetrahydronaphthalen-1-yl)carbamate] are 6.84 and 7.12.
For `Cc1cccc(-c2ccc3c(c2)C(NC(=O)O[C@@H]2CN4CCC2CC4)CCC3)c1` (stereo partly drawn) [Example 85, (S)-quinuclidin-3-yl (7-(m-tolyl)-1,2,3,4-tetrahydronaphthalen-1-yl)carbamate] the same measures were 6.72 and 7.13.
As to `CC1(C)CCc2cc(-c3ccc(F)cc3)ccc2C1NC(=O)O[C@@H]1CN2CCC1CC2` (stereo partly drawn) [Example 86, (S)-quinuclidin-3-yl (6-(4-fluorophenyl)-2,2-dimethyl-1,2,3,4-tetrahydronaphthalen-1-yl)carbamate], the negative logarithm of the IC50 (pIC50) in the test on GM1 production (Homo sapiens, Jurkat, 72 h) was 7.85; in test [1], 8.59.
For `CC1(C)CCc2cc(-c3ccc(Cl)cc3)ccc2C1NC(=O)O[C@@H]1CN2CCC1CC2` (stereo partly drawn) [Example 87, (S)-quinuclidin-3-yl (6-(4-chlorophenyl)-2,2-dimethyl-1,2,3,4-tetrahydronaphthalen-1-yl)carbamate] the same measures were 7.71 and 8.22.
For `CC1(C)CCc2cc(-c3ccc(C(F)(F)F)cc3)ccc2C1NC(=O)O[C@@H]1CN2CCC1CC2` (stereo partly drawn) [Example 88, (S)-quinuclidin-3-yl (2,2-dimethyl-6-(4-(trifluoromethyl)phenyl)-1,2,3,4-tetrahydronaphthalen-1-yl)carbamate] the same measures were 7.95 and 8.46.
Turning to `CC1(C)CCc2cc(-c3ccc(OC(F)(F)F)cc3)ccc2C1NC(=O)O[C@@H]1CN2CCC1CC2` (stereo partly drawn) [Example 89, (S)-quinuclidin-3-yl (2,2-dimethyl-6-(4-(trifluoromethoxy)phenyl)-1,2,3,4-tetrahydronaphthalen-1-yl)carbamate], the negative-log IC50 (pIC50) with GM1 production (Homo sapiens, Jurkat, 72 h) is 8.11; in test [1] it was 8.66.

(Values after patent publication US12338237B2, “Derivatives having 1,2,3,4-tetrahydronaphthalene moiety or pharmaceutically acceptable salt thereof and pharmaceutical compositions comprising the same” (YUHAN CORPORATION, priority 2019, dated 2025).)
